Like-named read-outs stand apart in the source and are kept apart here.
Tests used:
[1] = Solubility of oily component solid at 25° C. and crystallization test (stearyl alcohol); assay type: physicochemical; parameters: key to dissolution state: excellent: “Excellent” indicates uniform dissolution; “good” indicates dispersion; “poor” indicates separation; details: for average penetration score: Stearyl alcohol:silicone 1:9, solidified at 25° C. for 2 days, 1/4 cone, after 5 seconds, average of five, larger value means softer; for dissolution state: Stearyl alcohol:silicone mass ratio 1:9, heated at 105° C. for 20 minutes, visual observation
Protocol: (§1) Oily components being solid at 25° C. and silicones weighed at a mass ratio of 1:9 were heated at 105° C. for 20 minutes to observe the dissolution state. Then, each heated mixture solution was placed in an aluminum cup, allowed to stand at 25° C. for 2 days, and solidified. The penetration score of the solid was measured with a rheometer. The dissolution states according to the visual observation during the heating were shown as follows. “Excellent” indicates uniform dissolution, “good” indicates dispersion, and “poor” indicates separation.
(§2) Moreover, in the rheometer measurement, an automatic cone-penetration measurement test apparatus RPM-101 (manufactured by RIGOSHA CO., LTD.) was used, a ¼ cone was set, and a penetration score after 5 seconds was measured five times. […] A larger value means a softer material.

[2] = known value given for comparison; cited from earlier work
[3] = Solubility of oily component solid at 25° C. and crystallization test (polyethylene); assay type: physicochemical; parameters: key to dissolution state: excellent: “Excellent” indicates uniform dissolution; “good” indicates dispersion; “poor” indicates separation; details: for average penetration score: Polyethylene:silicone 1:9, solidified at 25° C. for 2 days, 1/4 cone, after 5 seconds, average of five, larger value means softer; for dissolution state: Polyethylene:silicone mass ratio 1:9, heated at 105° C. for 20 minutes, visual observation
Protocol: as §1, §2

[4] = Solubility test of ethylhexyl methoxycinnamate in silicones; assay type: physicochemical; parameters: key to dissolution state: “good” indicates dissolution; “poor” indicates separation; details: for dissolution state: shaken 24 hours, observed after 12 days at room temperature
Protocol: Ethylhexyl methoxycinnamate (sometimes referred to as OMC) and each silicone (sometimes referred to as Sx) weighed at a mass ratio shown in Table 1 were shaken and mixed at room temperature for 24 hours. After 12 days at room temperature, the dissolution state was observed. For each dissolution state, “good” indicates dissolution, and “poor” indicates separation.

[5] = Viscosity (kinematic viscosity, Ostwald viscometer); assay type: physicochemical
Protocol: Further, since the viscosity of the organosiloxane in the present invention is less than 5 mm^2/s (25° C.), favorable applicability and spreadability are sensed in the same manner as in cases of using decamethylcyclopentasiloxane having a viscosity of 4 mm^2/s (25° C.), or the like. Additionally, the feeling on use is favorable without provoking considerable sticky feeling. If the viscosity is 5 mm^2/s (25° C.) or higher, this causes poor spreading, sticky feeling is provoked, and the feeling on use is poor. Note that the viscosity (kinematic viscosity) values are measured using an Ostwald viscometer.
(§3) A 1-L four-necked flask was charged with 282.6 g of 1,1,1,3,5,7,7,7-octamethyltetrasiloxane and 1.4 mg of chloroplatinic acid. An ethylene gas was blown into the mixture under stirring, and a hydrosilylation reaction took place while the temperature was held at […]. The reaction was monitored by gas chromatography. When it was observed that the proportion of a target reached 95% or more, the reaction was terminated. Distillation under reduced pressure (120° C., 10 mmHg) was performed to obtain 3,5-diethyl-1,1,1,3,5,7,7,7-octamethyltetrasiloxane as the target. The boiling point was 227° C. and the viscosity was 2.2 mm^2/s.

[6] = assay type: physicochemical
Protocol: as §3

| Compound | average penetration score [1] | boiling point [2] [°C] | average penetration score [3] | dissolution state ([4]; Ratio of OMC:Sx 1:1 (mass)) | dissolution state [1] | dissolution state [3] | viscosity [5] [mm^2/s] | dissolution state ([4]; Ratio of OMC:Sx 4:6 (mass)) | Dissolution of ethylhexyl methoxycinnamate compared with other silicones ([4]; versus KF-96L-1cs, KF-96L-1.5cs, KF-96L-2cs, TMF-1.5, KF-995, D6) | boiling point [6] [°C] |
| --- | --- | --- | --- | --- | --- | --- | --- | --- | --- | --- |
| C[Si]1(C)O[Si](C)(C)O[Si](C)(C)O[Si](C)(C)O[Si](C)(C)O1 [D5:KF-995, decamethylpentasiloxane] | 34.4 | 210 | 22.4 |  |  |  |  |  |  |  |
| C[Si]1(C)O[Si](C)(C)O[Si](C)(C)O[Si](C)(C)O[Si](C)(C)O[Si](C)(C)O1 [Example D6, dodecamethylhexasiloxane] | 31.5 | 245 | 21.0 |  |  |  |  |  |  |  |
| C[Si](C)(C)O[Si](C)(C)O[Si](C)(C)O[Si](C)(C)C [KF-96L-1.5cs, decamethyltetrasiloxane] |  |  |  | poor |  |  |  |  |  |  |
| C[Si](C)(C)O[Si](C)(C)O[Si](C)(C)C [KF-96L-1cs, octamethyltrisiloxane] | 31.7 |  | 30.7 | poor | excellent | good |  |  |  |  |
| CC[Si](C)(O[Si](C)(C)C)O[Si](C)(CC)O[Si](C)(C)C (centres unmarked) [Sx of Production Example 1, 3,5-Diethyl-1,1,1,3,5,7,7,7-octamethyltetrasiloxane] | 49.5 |  | 33.7 | good | excellent | excellent | 2.2 | good | dissolved ethylhexyl methoxycinnamate to higher extent | 227 |
| undecamethylpentasiloxane [KF-96L-2cs] | 34.6 |  | 18.6 | poor | excellent | Poor |  |  |  |  |
